Patent publication EP1394219A1, “PH sensitive cyanine dyes as reactive fluorescent reagents” (CARNEGIE MELLON UNIVERSITY, priority 1999, dated 2000)
Where two headings read alike, the source gives them in different places.

Legend:
[1] = Fluorescence and UV absorbance properties of the dyes in phosphate buffers of different pH, pKa from emission intensity ratio I/Io; conditions: for λmax pH 5.00 / λmaxpH 10.00: UV absorbance maximum; for λmax pH 5.00 / λmaxpH 10.00 / λEm(nm): phosphate buffer; for λmaxpH 10.00: pH 10.00; for λEm(nm): fluorescence emission maximum; for pKa: phosphate buffers, pH 5.85
Experimental: (§1) The pKa was measured as the ratio of emission intensity at the pH measured and the emission intensity for maximum emission, or I/Io. […] The pKa can be calculated to be where I/Io = 0.5 or where the fluorescent probe is 50% protonated.

[2] = phosphate buffer, pH 5.85
Experimental: as §1

[3] = cited from earlier work; for pKa: product literature value, may be different in a cellular environment

CC1(C)C(=CC=CC2=[N+](CCCCCC(=O)O)c3ccc(S(=O)(=O)[O-])cc3C2(C)C)Nc2ccc(S(=O)(=O)O)cc21 [Compound 3.39]
λmax pH 5.00 [1]: 550nm | λmaxpH 10.00 [1]: 476nm | λEm(nm) [1]: 565nm | pKa [2]: 7.75

CC1(C)C(=C/C=C/C=C/C2=[N+](CCCCS(=O)(=O)[O-])c3ccc(CC(=O)O)cc3C2(C)C)Nc2ccc(S(=O)(=O)O)cc21 [Compound 4]
λmax pH 5.00 [1]: 650nm | λmaxpH 10.00 [1]: 515nm | λEm(nm) [1]: 665nm | pKa [2]: 6.4

CC[N+]1=C(/C=C/C=C/C=C2Nc3ccc(CC(=O)O)cc3C2(C)C)C(C)(C)c2cc(S(=O)(=O)[O-])ccc21 [Compound 5]
λmax pH 5.00 [1]: 650nm | λmaxpH 10.00 [1]: 484nm | λEm(nm) [1]: 665nm | pKa [2]: 7.5

CC1(C)/C(=C\C=C\c2sc3ccccc3[n+]2CCCCS(=O)(=O)O)Nc2ccc(CC(=O)O)cc21 [Compound 6]
λmax pH 5.00 [1]: 552nm | λmaxpH 10.00 [1]: 433nm | λEm(nm) [1]: 580nm | pKa [1]: 9.8

CC1(C)\C(=C/C=C/C=C/c2sc3ccccc3[n+]2CCCCCC(=O)O)Nc2ccc(S(=O)(=O)O)cc21 [Compound 7]
λmax pH 5.00 [1]: 640nm | λmaxpH 10.00 [1]: 531nm | λEm(nm) [1]: 670nm | pKa [1]: 6.85

C[N+]1=C(/C=C/C=C/C=C2/Nc3ccc(S(=O)(=O)O)cc3C2(C)C)C(C)(C)c2cc(CN)ccc21 [Compound 8]
λmax pH 5.00 [1]: 650nm | λmaxpH 10.00 [1]: 531nm | λEm(nm) [1]: 665nm | pKa [1]: 7.25

CC1(C)C(/C=C/C=C/C=C2Nc3ccc4c(S(=O)(=O)O)cc(S(=O)(=O)O)cc4c3C2(C)C)=[N+](CCCCCC(=O)O)c2ccc(S(=O)(=O)[O-])cc21 [Compound 9]
λmax pH 5.00 [1]: 655nm | λmaxpH 10.00 [1]: 522nm | λEm(nm) [1]: 680nm | pKa [2]: 7.25

CC1(C)C(=C/C=C/C=C/C2=[N+](CCCCCC(=O)NN)c3ccc(S(=O)(=O)[O-])cc3C2(C)C)Nc2ccc(S(=O)(=O)O)cc21 [Compound 10]
λmax pH 5.00 [1]: 653nm | λmaxpH 10.00 [1]: 501nm | λEm(nm) [1]: 660nm | pKa [2]: 7.5

c1ccc2c(CN3CCOCC3)c3ccccc3c(CN3CCOCC3)c2c1 [LYSOSENSOR BLUE DND-167]
solubility in DMSO [3]: soluble | pKa [3]: 5.1

CN(C)Cc1c2ccccc2c(CN(C)C)c2ccccc12 [LYSOSENSOR BLUE DND-192]
solubility in DMSO [3]: soluble | pKa [3]: 7.5

CN(C)CCNc1ccc2c3c1cccc3c(=O)n1c3ccccc3nc21 [LYSOSENSOR GREEN DND-153]
solubility in DMSO [3]: soluble | pKa [3]: 7.5

O=c1c2cccc3c(NCCN4CCOCC4)ccc(c32)c2nc3ccccc3n12 [LYSOSENSOR GREEN DND-189]
solubility in DMSO [3]: soluble | pKa [3]: 5.2
